Data on three compounds can be found in US7888025B2, “Intestinal folate transporter method” (Albert Einstein College of Medicine of Yeshiva University, priority 2007, dated 2011).

Assay [1] deals with T1, low-pH folate transporter (Homo sapiens, UniProt Q96NT5).
T1 construct: host or cells: HeLa and other cells
T1 sequence (Q96NT5 1-459): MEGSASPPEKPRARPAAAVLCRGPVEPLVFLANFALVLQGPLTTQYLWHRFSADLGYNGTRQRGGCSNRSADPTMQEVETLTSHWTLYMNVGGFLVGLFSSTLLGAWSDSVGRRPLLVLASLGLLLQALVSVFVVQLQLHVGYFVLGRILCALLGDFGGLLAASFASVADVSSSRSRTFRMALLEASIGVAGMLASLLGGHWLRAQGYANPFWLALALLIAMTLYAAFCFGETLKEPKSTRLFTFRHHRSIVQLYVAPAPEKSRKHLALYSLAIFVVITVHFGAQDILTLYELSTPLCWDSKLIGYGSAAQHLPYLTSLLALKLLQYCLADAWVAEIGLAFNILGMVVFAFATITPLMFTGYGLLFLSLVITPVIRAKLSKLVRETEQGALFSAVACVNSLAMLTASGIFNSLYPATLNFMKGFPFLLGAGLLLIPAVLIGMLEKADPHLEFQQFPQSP
The note with it: cited from earlier work.

The target in assay [2] is T2, G21 (PCFT) (Homo sapiens, UniProt Q96NT5).
T2 construct: expressed in transfected cells; host or cells: Xenopus laevis oocytes injected with capped G21 cRNA (pSPT64, SP6)
T2 sequence (Q96NT5 1-459): T1 sequence (Q96NT5 1-459)
Briefly: Inhibition of [3H]folic acid uptake into G21 cRNA-injected Xenopus oocytes. It is filed as cell-based. Conditions: for inhibitory effect on uptake of 2 μM [3H]folic acid: 20 μM nonlabeled compound, pH 5.5, 30 min. The method, then:
Uptake studies in Xenopus oocytes. […] Radiotracer uptake was determined 3 or 4 days later. […] Uptake was halted by the addition of ice-cold MBS (pH 7.5). Oocytes were washed 10 times thereafter, and solubilized with 10% SDS for measurement of radioactivity. To collapse the pH gradient across the oocyte membrane, seven to 10 oocytes were incubated in MBS (pH 5.5) containing 0, 10, 20, 40, 60 μM FCCP for 20 min, and uptake of transport substrates assessed at pH 5.5.

Assay [3] addresses T3, reduced folate carrier (SLC19A1) (Homo sapiens, UniProt P41440).
T3 sequence (P41440 1-591): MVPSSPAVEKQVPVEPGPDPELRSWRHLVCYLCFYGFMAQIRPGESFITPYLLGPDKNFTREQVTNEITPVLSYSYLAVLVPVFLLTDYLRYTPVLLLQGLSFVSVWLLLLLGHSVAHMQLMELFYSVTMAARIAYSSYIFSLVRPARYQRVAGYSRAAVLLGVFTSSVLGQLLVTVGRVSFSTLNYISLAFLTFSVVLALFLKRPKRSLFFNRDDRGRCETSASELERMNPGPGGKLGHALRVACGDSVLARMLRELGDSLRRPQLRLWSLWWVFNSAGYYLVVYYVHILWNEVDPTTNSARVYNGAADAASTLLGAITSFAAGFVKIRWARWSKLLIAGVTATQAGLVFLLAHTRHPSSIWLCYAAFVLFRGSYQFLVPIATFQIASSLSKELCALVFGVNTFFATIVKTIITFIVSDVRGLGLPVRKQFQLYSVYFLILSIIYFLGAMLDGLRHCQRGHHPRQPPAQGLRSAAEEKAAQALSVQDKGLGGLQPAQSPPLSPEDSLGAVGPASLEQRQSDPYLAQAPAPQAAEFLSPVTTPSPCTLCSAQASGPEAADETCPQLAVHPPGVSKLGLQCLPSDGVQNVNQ
Conditions: cited from earlier work.

In assay [4] the target is T2, G21 (PCFT). Briefly: Two-electrode voltage-clamp electrophysiology in G21 cRNA-injected Xenopus oocytes. It is filed as cell-based. The method, then: Electrophysiological analyses in Xenopus oocytes. Defolliculated oocytes were injected with 50 nl of water (control) or G21 cRNA (50 ng), and kept at 17° C. in horse serum medium (in mM, 82.5 NaCl, 2.5 KCl, 1 MgCl2, 2.3 CaCl2, 5 HEPES, 5% horse serum, pH 7.5). Electrophysiological recordings were conducted 3-7 days after cRNA injection in buffer (in mM, 90 NaCl, 1 KCl, 1 MgCl2, 1.8 CaCl2, 5 TRIS, 5 MES) as described previously (Jansen and Akabas, 2006). Oocyte holding potential was −80 mV for Km determination. For current-voltage (I-V) relationships, from a −60 mV holding potential step changes in membrane potential were applied for 2 s in 10 mV increments between −100 and 30 mV in the absence and presence of substrate.
For orientation: Two-electrode voltage clamp holds a large cell at a set potential and records current.

Assay [5] deals with T2, G21 (PCFT). Briefly: Inhibition of [3H]folic acid uptake in HepG2 cells stably transfected with G21 cDNA. It is filed as cell-based. The note with it: 100 μM inhibitor, pH 6.5, HepG2 cells. The method, then: Transfection. Transfection of plasmid DNA was performed in HepG2, HeLa, and Caco2 cells with Lipofectamine 2000 (Invitrogen). HepG2 cells, stably transfected with either pcDNA3.1(+) or pcDNA3.1(+)G21, were generated by G418 selection (600 μg/ml). Double selection with puromycin (5 μg/ml) and hygromycin (50 μg/ml) was adopted to obtain stably transfected Caco-2 cells with both G21-silencing shRNA vectors, or with both non-silencing negative control plasmids.
Transport of folates in HepG2, HeLa and Caco2 cells. Initial uptake of tritiated folates in HepG2, HeLa, or Caco2 cells was assessed using a protocol designed for rapid uptake determinations in cells growing in monolayer culture in liquid scintillation vials (Sharif and Goldman, 2000) except that cells were incubated at pH 7.4 and 37° C. for 20 min before initiation of uptake. Substrate uptake was normalized to protein content.

For assay [6], the target named is T2, G21 (PCFT). Nature of the assay: Uptake of tritiated folates in G21 cRNA-injected Xenopus oocytes. It is filed as cell-based. The method, then:
Uptake studies in Xenopus oocytes. Defolliculated Xenopus laevis oocytes were prepared as described (Jansen and Akabas, 2006) and injected with 50 nl of water or G21 cRNA (30 ng). Radiotracer uptake was determined 3 or 4 days later. Seven to 10 oocytes were incubated in 500 μl of Modified Barth's Solution (MBS, in mM, 88 NaCl, 2.4 NaHCO3, 2.5 Na pyruvate, 1 KCl, 0.82 MgSO4, 0.41 CaCl2, 0.3 Ca(NO3)2, 15 MES or HEPES) and uptake of tritiated folate substrates assessed at room temperature. Uptake was halted by the addition of ice-cold MBS (pH 7.5). Oocytes were washed 10 times thereafter, and solubilized with 10% SDS for measurement of radioactivity. To collapse the pH gradient across the oocyte membrane, seven to 10 oocytes were incubated in MBS (pH 5.5) containing 0, 10, 20, 40, 60 μM FCCP for 20 min, and uptake of transport substrates assessed at pH 5.5.

Assay [7] deals with rat jejunum brush border membranes. Conditions: read-out: uptake Km, cited from earlier work.
Assay [8] addresses T4, HCP1 murine ortholog (Mus musculus, UniProt Q6PEM8, A402V).
T4 construct: host or cells: HeLa cells infected with a cDNA-containing adenovirus vector
T4 sequence (Q6PEM8 1-459 A402V): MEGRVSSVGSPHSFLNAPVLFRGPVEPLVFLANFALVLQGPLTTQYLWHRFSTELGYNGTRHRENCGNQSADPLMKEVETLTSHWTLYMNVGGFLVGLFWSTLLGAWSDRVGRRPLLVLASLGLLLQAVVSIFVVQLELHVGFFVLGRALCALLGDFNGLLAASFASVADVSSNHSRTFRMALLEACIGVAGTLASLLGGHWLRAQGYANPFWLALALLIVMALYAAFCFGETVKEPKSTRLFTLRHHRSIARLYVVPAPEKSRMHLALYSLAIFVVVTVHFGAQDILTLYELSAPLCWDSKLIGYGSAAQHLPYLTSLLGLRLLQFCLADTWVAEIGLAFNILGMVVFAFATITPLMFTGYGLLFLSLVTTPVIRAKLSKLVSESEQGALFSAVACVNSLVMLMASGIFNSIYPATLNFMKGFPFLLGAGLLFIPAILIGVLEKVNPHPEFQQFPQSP
Conditions: HeLa cells, read-out: Km for [55Fe]hemin uptake; cited from earlier work.

Where [9] appears, read: pH 5.5, intestinal and other human cells.

A word on the Ki: it is a dissociation constant, usually derived from enzyme kinetics or from competition with a known ligand. By inhibition is commonly meant the relative decrease from the control value, in per cent. Broadly, the Km is the concentration of substrate that gives half-maximal velocity.

Entries after “also recorded” stand apart in the source; their conditions may differ. Read-outs that look alike come from different tables or passages of the source. A value given as a limit tells only on which side of the number the result lay.

As for `Nc1nc(N)c2nc(CNc3ccc(C(=O)N[C@@H](CCCNC(=O)c4ccccc4C(=O)O)C(=O)O)cc3)cnc2n1` [PT523], the Ki in assay [1] (HeLa and other cells) was above 50 µM; in assay [1] (setting [9]), above 50 µM; in assay [3], around 0.7 µM. For the same compound, the “inhibitory effect on uptake of 2 μM [3H]folic acid” value in assay [2] is given as “did not inhibit”.

As to `Nc1nc2ncc(CNc3ccc(C(=O)N[C@@H](CCC(=O)O)C(=O)O)cc3)nc2c(=O)[nH]1` [folic acid], in assay [4] (saturating concentrations, same oocyte, pH 5.5), the “current amplitude larger than (6S)5-MTHF-induced current” value is reported as 39±6%. Moreover, the inhibition at 100 µM is 90 ± 0.02% in assay [5] (read-out: inhibition of 2 μM [3H]folic acid uptake) and 92 ± 2% in assay [2] (read-out: inhibition of 2 μM [3H]folic acid uptake, 100 μM inhibitor, pH 6.5, Xenopus oocytes). For the same compound, the “decrease in Vmax” value in assay [6] (over the pH range of 5.5 to 6.5) came out at 2.4 fold. In addition, the “uptake Vmax” value in assay [6] (pH 5.5, same batch of oocytes) was found to be 13 pmol/oocyte/hr; in assay [6] (pH 7.5, same batch of oocytes) it was 5 pmol/oocyte/hr. For the same compound, the figures for the “increase in Km” value in assay [6] (pH increased from 5.5 to 7.0) and in assay [6] (pH increased from 7.0 to 7.5) were 2.6 fold and 18 fold, respectively. Besides, the Ki was around 0.6 µM in assay [1] (setting [9]) and around 200 µM in assay [3]. Moreover, the Km was 0.6 µM in assay [7] (pH 5.5) and 12.3 µM in assay [7] (pH 7.4).

Consider hemin, for which, in assay [4] (100 μM hemin, with 0.1% bovine serum albumin or 200 μM arginine), the substrate-induced current entry is reported as “no current could be detected; also recorded: unable to detect”. The “inhibition of 2 μM [3H]folic acid uptake” value in assay [5] came out at 30±5%; in assay [2] (100 μM inhibitor, pH 6.5, Xenopus oocytes), 42±7%. Further, the “inhibitory effect on uptake of 2 μM [3H]folic acid” value in assay [2] is “weak inhibitor”. Also, the Km in assay [8] was 125 µM.
